Our source for the ED50 values is ChEMBL document CHEMBL1148325 (J Med Chem, 2004).

Structures are written as SMILES.

The nature of the test: In vivo reduction in blood pressure relative to maximum achieved with the K-ATP standard P1075 in spontaneously hypertensive rat.
Consider `O=C1CCCC2=C1[C@H](c1ccc(F)c(Br)c1)C1=C(CCS1(=O)=O)N2`, for which the ED50 was 427 nM.

In the case of `O=C1CCCC2=C1[C@@H](c1ccc(F)c(Br)c1)C1=C(O)OCC1=N2`, the ED50 was found to be 2450 nM.

In turn, `O=C1OCC2=C1C(c1ccc(F)c(Br)c1)C1=C(O)OCC1=N2` (stereo not drawn) gave an ED50 of 398 nM.
